{"source": "ChEMBL document CHEMBL1212744", "about": "“Relative contributions of active mediated transport and passive diffusion of fluoroquinolones with various lipophilicities in a Calu-3 lung epithelial cell model” (Antimicrob Agents Chemother, 2010)", "key": {"[1]": {"assay": "Apparent permeability across apical to basolateral side in human Calu3 cells"}, "[2]": {"assay": "Apparent permeability across basolateral to apical side in human Calu3 cells"}, "[3]": {"assay": "Distribution coefficient, log D of the compound", "settings": "octanol/water"}, "[4]": {"assay": "Efflux ratio of apparent permeability across basolateral to apical side over apical to basolateral side in human Calu3 cells"}}}
{"compound": "CCn1cc(C(=O)O)c(=O)c2cc(F)c(N3CCNCC3)cc21", "note": "[NORFLOXACIN]", "values": [{"measurement": "Papp A→B", "setting": "[1]", "result": 0.6, "unit": "×10⁻⁶ cm/s"}, {"measurement": "Papp B→A", "setting": "[2]", "result": 2, "unit": "×10⁻⁶ cm/s"}, {"measurement": "logD", "setting": "[3]", "result": -1.16}, {"measurement": "efflux ratio", "setting": "[4]", "result": 3.3}]}
{"compound": "COc1c(N2C[C@@H]3CCCN[C@@H]3C2)c(F)cc2c(=O)c(C(=O)O)cn(C3CC3)c12", "note": "[MOXIFLOXACIN]", "values": [{"measurement": "Papp A→B", "setting": "[1]", "result": 5, "unit": "×10⁻⁶ cm/s"}, {"measurement": "Papp B→A", "setting": "[2]", "result": 10.4, "unit": "×10⁻⁶ cm/s"}]}
{"compound": "C[C@H]1COc2c(N3CCN(C)CC3)c(F)cc3c(=O)c(C(=O)O)cn1c23.C[C@H]1COc2c(N3CCN(C)CC3)c(F)cc3c(=O)c(C(=O)O)cn1c23.O", "note": "[LEVOFLOXACIN]", "values": [{"measurement": "logD", "setting": "[3]", "result": -0.41}]}
{"compound": "Cc1c(F)c(N2CCNC(C)C2)cc2c1c(=O)c(C(=O)O)cn2C1CC1", "note": "(stereo unspecified) [GREPAFLOXACIN]", "values": [{"measurement": "Papp A→B", "setting": "[1]", "result": 3.1, "unit": "×10⁻⁶ cm/s"}, {"measurement": "Papp B→A", "setting": "[2]", "result": 11.8, "unit": "×10⁻⁶ cm/s"}, {"measurement": "logD", "setting": "[3]", "result": 0.03}, {"measurement": "efflux ratio", "setting": "[4]", "result": 3.8}]}
